What is called IC50 is the midpoint of a concentration-inhibition curve. Low readings indicate greater potency in that assay, high ones weaker potency in that assay. By inhibition is commonly meant the percentage by which the read-out fell short of the control. A higher inhibition goes with strong suppression.

Where a SMILES comes first, the peptide text is derived from it.

From US7176281B2 (priority 2003, dated 2007) come the findings set out here.

The target of one test is T1, Group IIA purified human synovial sPLA2 (Homo sapiens, UniProt P14555).
T1 construct: purchased Cayman, USA
T1 sequence (P14555 21-144): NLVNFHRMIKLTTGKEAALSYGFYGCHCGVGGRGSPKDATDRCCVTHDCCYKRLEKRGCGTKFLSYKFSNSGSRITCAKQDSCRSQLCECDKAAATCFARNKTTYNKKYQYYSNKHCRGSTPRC
The test is described as follows: In vitro inhibition of purified human synovial sPLA2, 3H-labelled E. coli membranes. The test is classed as biochemical. To be noted: 3H-labelled E. coli membranes as substrate.
With `CC[C@H](C)[C@H](NC(=O)[C@H](CCC(=O)O)NC(=O)[C@@H](N)C(C)C)C(=O)N[C@@H](Cc1c[nH]cn1)C(=O)N[C@H](C(=O)N[C@@H](Cc1c[nH]c2ccccc12)C(=O)N[C@@H](CCC(=O)O)C(=O)NCC(=O)N[C@H](C(=O)O)C(C)C)C(C)C` [D60, 65E-PIP (59–67)] (H-VEIHVWEGV-OH; N-terminus and C-terminus assumed), half-maximal inhibition (IC50) required 4.2 µM. This lies in the single-digit micromolar range.

The compound `CC[C@H](C)[C@H](NC(=O)[C@H](CC(=O)O)NC(=O)[C@@H](N)C(C)C)C(=O)N[C@@H](Cc1cnc[nH]1)C(=O)N[C@H](C(=O)N[C@@H](Cc1c[nH]c2ccccc12)C(=O)N[C@@H](C)C(=O)NCC(=O)N[C@H](C(=O)O)C(C)C)C(C)C` [D65A-PIP (59–67)] (H-VDIHVWAGV-OH) had a half-inhibitory concentration (IC50) of 5.45 µM.

`CC[C@H](C)[C@H](NC(=O)[C@H](CC(=O)O)NC(=O)[C@@H](N)C(C)C)C(=O)N[C@@H](Cc1cnc[nH]1)C(=O)N[C@H](C(=O)N[C@@H](Cc1c[nH]c2ccccc12)C(=O)N[C@@H](CCC(=O)O)C(=O)NCC(=O)N[C@H](C(=O)O)C(C)C)C(C)C` [D65E-PIP (59–67)] (H-VDIHVWEGV-OH) yielded an IC50 of 4.95 µM. In turn, `CC[C@H](C)[C@H](NC(=O)[C@H](CC(=O)O)NC(=O)[C@@H](N)C(C)C)C(=O)N[C@@H](Cc1cnc[nH]1)C(=O)N[C@H](C(=O)N[C@@H](Cc1c[nH]c2ccccc12)C(=O)N[C@@H](CO)C(=O)NCC(=O)N[C@H](C(=O)O)C(C)C)C(C)C` [D65S-PIP (59–67)] (H-VDIHVWSGV-OH) returned an IC50 of 5.25 µM. This IC50 and that of the compound before are within 1.5-fold of each other. For the compound `CC[C@H](C)[C@H](NC(=O)[C@H](CC(=O)O)NC(=O)[C@@H](NC(=O)[C@@H](N)CCCNC(=N)N)C(C)C)C(=O)N[C@@H](Cc1c[nH]cn1)C(=O)N[C@H](C(=O)N[C@@H](Cc1c[nH]c2ccccc12)C(=O)N[C@@H](CC(=O)O)C(=O)NCC(=O)N[C@H](C(=O)O)C(C)C)C(C)C` [PIP (58–67)] (H-RVDIHVWDGV-OH; N-terminus and C-terminus assumed), the IC50 came to 3.67 µM. Same read-out and setting: the result for `CC[C@H](C)[C@H](NC(=O)[C@@H](N)CC(=O)O)C(=O)N[C@@H](Cc1c[nH]cn1)C(=O)N[C@H](C(=O)N[C@@H](Cc1c[nH]c2ccccc12)C(=O)N[C@@H](CC(=O)O)C(=O)NCC(=O)N[C@H](C(=O)O)C(C)C)C(C)C` [PIP (60–67)] (H-DIHVWDGV-OH; N-terminus and C-terminus assumed) reads 5.75 µM.

The same test, now with this note: fixed peptide concentration 5 μM.
As to `CC[C@H](C)[C@H](NC(=O)[C@H](CC(=O)O)NC(=O)[C@@H](NC(=O)[C@@H](N)CCCNC(=N)N)C(C)C)C(=O)N[C@@H](Cc1c[nH]cn1)C(=O)N[C@H](C(=O)N[C@@H](Cc1c[nH]c2ccccc12)C(=O)N[C@@H](CC(=O)O)C(=O)NCC(=O)N[C@H](C(=O)O)C(C)C)C(C)C` [PIP (58–67)] (H-RVDIHVWDGV-OH; N-terminus and C-terminus assumed), the inhibition at 5 µM stood at 59.5%. On the same count and under the same terms, the result for `CC[C@H](C)[C@H](NC(=O)[C@@H](N)CC(=O)O)C(=O)N[C@@H](Cc1c[nH]cn1)C(=O)N[C@H](C(=O)N[C@@H](Cc1c[nH]c2ccccc12)C(=O)N[C@@H](CC(=O)O)C(=O)NCC(=O)N[C@H](C(=O)O)C(C)C)C(C)C` [PIP (60–67)] (H-DIHVWDGV-OH; N-terminus and C-terminus assumed) reads 45.9%. As to DIHVWDG [PIP (60–66)], the “Mean % Inhibition” value is “n.s”.

For GRVDIHVWDGV [PIP (57–67)], the “Mean % Inhibition” value was determined as 14.22%.

Take HVWDG [PIP (62–66)]: the “Mean % Inhibition” value is “n.s”. Still for that read-out and setting: the result for IHVWDG [PIP (61–66)] reads “n.s”.

As for IHVWDGV [PIP (61–67)], the “Mean % Inhibition” value was “n.s”. As to LGRVDIHVWDGV [PIP (56–67)], the “Mean % Inhibition” value amounted to 34.21%.

The same test, now with this note: purified human synovial sPLA2 (Cayman).
`CC[C@H](C)[C@H](NC(=O)[C@H](CC(=O)O)NC(=O)[C@@H](N)C(C)C)C(=O)N[C@@H](Cc1cnc[nH]1)C(=O)N[C@H](C(=O)N[C@@H](Cc1c[nH]c2ccccc12)C(=O)N[C@@H](CC(=O)O)C(=O)NCC(=O)N[C@H](C(=O)N[C@H](C(=O)N[C@@H](CC(=O)O)C(=O)N[C@H](C(=O)N[C@@H](Cc1cnc[nH]1)C(=O)N[C@H](C(=O)N[C@@H](Cc1c[nH]c2ccccc12)C(=O)N[C@@H](CC(=O)O)C(=O)NCC(=O)N[C@H](C(=O)O)C(C)C)C(C)C)[C@@H](C)CC)C(C)C)C(C)C)C(C)C` [PIP (59–67) dimer, VDIHVWDGV VDIHVWDGV] (H-VDIHVWDGVVDIHVWDGV-OH): the IC50 was found to be 1.19 µM. This lies in the single-digit micromolar range. Regarding `CC[C@H](C)[C@H](NC(=O)[C@H](CC(=O)O)NC(=O)[C@@H](N)C(C)C)C(=O)N[C@@H](Cc1c[nH]cn1)C(=O)N[C@H](C(=O)N[C@@H](Cc1c[nH]c2ccccc12)C(=O)N[C@@H](CC(=O)O)C(=O)NCC(=O)N[C@H](C(=O)O)C(C)C)C(C)C` [PIP (59–67)] (H-VDIHVWDGV-OH; N-terminus and C-terminus assumed), inhibition was half-maximal at 3.8 µM (IC50).
